Where “and” joins values, the source holds several entries; their conditions need not be identical. Equal values may be shown once. ± gives the expanded uncertainty stated by the source.
Assays:
[1] = refractive index (Na D-line) (dimensionless); details: Liquid, Standard Abbe refractometry
[2] = Liquid, Ebulliometric method (Recirculating still)
[3] = refractive index (Na D-line) (dimensionless); xn = mol fraction of the nth substance listed; details: 293.15 K, 93.9 kPa, Liquid, Standard Abbe refractometry

COc1ccccc1 [anisole]
[1]
Details	refractive index
293.15 K, 93.9 kPa	1.5168 ± 0.006 and 1.5167 ± 0.006
298.15 K, 101.33 kPa	1.51554 ± 0.006

Details	vapor or sublimation pressure [kPa]
[2], 423.92 K	93.9 ± 1

CCCOC(C)=O [propyl ethanoate]
[1]
Details	refractive index
293.15 K, 93.9 kPa	1.3841 ± 0.006
298.15 K, 101.33 kPa	1.38406 ± 0.006

Details	vapor or sublimation pressure [kPa]
[2], 372.17 K	93.9 ± 1

COc1ccccc1 [anisole] + CCCOC(C)=O
[3]
Details	refractive index
x2 = 0	1.5168 ± 0.006
x2 = 0.1119	1.5019 ± 0.006
x2 = 0.1399	1.4979 ± 0.006
x2 = 0.1575	1.4954 ± 0.006
x2 = 0.2187	1.4875 ± 0.006
x2 = 0.2418	1.4844 ± 0.006
x2 = 0.3387	1.4706 ± 0.006
x2 = 0.354	1.4687 ± 0.006
x2 = 0.4168	1.4603 ± 0.006
x2 = 0.4759	1.4525 ± 0.006
x2 = 0.533	1.4451 ± 0.006
x2 = 0.5833	1.4381 ± 0.006
x2 = 0.6096	1.435 ± 0.006
x2 = 0.6683	1.4268 ± 0.006
x2 = 0.7081	1.4203 ± 0.006
x2 = 0.8047	1.4093 ± 0.006
x2 = 0.8978	1.3968 ± 0.006

CCOC(C)=O [ethyl acetate]
[1]
Details	refractive index
293.15 K, 93.9 kPa	1.3724 ± 0.006
298.15 K, 101.33 kPa	1.37244 ± 0.006

Details	vapor or sublimation pressure [kPa]
[2], 347.92 K	93.9 ± 1

CCOC(C)=O [ethyl acetate] + COc1ccccc1
Details	refractive index
[3], x1 = 1	1.3724 ± 0.006

COc1ccccc1 [anisole] + CCOC(C)=O
[3]
Details	refractive index
x2 = 0	1.5168 ± 0.006
x2 = 0.1318	1.5002 ± 0.006
x2 = 0.1651	1.4954 ± 0.006
x2 = 0.1818	1.4935 ± 0.006
x2 = 0.2131	1.4896 ± 0.006
x2 = 0.2301	1.4867 ± 0.006
x2 = 0.3334	1.4735 ± 0.006
x2 = 0.3472	1.4712 ± 0.006
x2 = 0.4119	1.4619 ± 0.006
x2 = 0.4709	1.4548 ± 0.006
x2 = 0.4899	1.4518 ± 0.006
x2 = 0.5481	1.4426 ± 0.006
x2 = 0.6353	1.431 ± 0.0061
x2 = 0.6467	1.4243 ± 0.0061
x2 = 0.718	1.4201 ± 0.006
x2 = 0.7382	1.4142 ± 0.006
x2 = 0.8354	1.3989 ± 0.006
x2 = 0.9091	1.3874 ± 0.006

CC(=O)OC(C)C [1-methylethyl ethanoate]
[1]
Details	refractive index
293.15 K, 93.9 kPa	1.3774 ± 0.006
298.15 K, 101.33 kPa	1.37739 ± 0.006

Details	vapor or sublimation pressure [kPa]
[2], 359.68 K	93.9 ± 1

CC(=O)OC(C)C [1-methylethyl ethanoate] + COc1ccccc1
[3]
Details	refractive index
x1 = 0.1058	1.5013 ± 0.006
x1 = 0.1227	1.499 ± 0.006
x1 = 0.1703	1.4924 ± 0.006
x1 = 0.1794	1.4915 ± 0.006
x1 = 0.2163	1.4872 ± 0.006
x1 = 0.2803	1.4768 ± 0.006
x1 = 0.3303	1.4727 ± 0.006
x1 = 0.3684	1.4673 ± 0.006
x1 = 0.4254	1.4561 ± 0.006
x1 = 0.4928	1.4481 ± 0.006
x1 = 0.5116	1.4445 ± 0.006
x1 = 0.5769	1.4361 ± 0.006
x1 = 0.6338	1.4272 ± 0.006
x1 = 0.7247	1.4154 ± 0.006
x1 = 0.8136	1.4026 ± 0.006
x1 = 0.9006	1.3903 ± 0.006
x1 = 1	1.3774 ± 0.006

COC(C)=O [methyl ethanoate] + COc1ccccc1
Details	refractive index
[3], x1 = 1	1.3615 ± 0.006

CCCOC(C)=O [propyl ethanoate] + COc1ccccc1
Details	refractive index
[3], x1 = 1	1.3841 ± 0.006

COc1ccccc1 [anisole] + COC(C)=O
[3]
Details	refractive index
x2 = 0	1.5168 ± 0.006
x2 = 0.1432	1.4995 ± 0.006
x2 = 0.1704	1.497 ± 0.006
x2 = 0.2986	1.4855 ± 0.006
x2 = 0.3004	1.4826 ± 0.006
x2 = 0.3323	1.4777 ± 0.006
x2 = 0.41	1.4692 ± 0.006
x2 = 0.4439	1.4625 ± 0.006
x2 = 0.5057	1.4542 ± 0.006
x2 = 0.5405	1.451 ± 0.006
x2 = 0.6003	1.4372 ± 0.006
x2 = 0.6354	1.4327 ± 0.006
x2 = 0.6972	1.4233 ± 0.006
x2 = 0.814	1.3994 ± 0.006
x2 = 0.8577	1.3909 ± 0.006
x2 = 0.9391	1.3743 ± 0.006

COC(C)=O [methyl ethanoate]
[1]
Details	refractive index
293.15 K, 93.9 kPa	1.3615 ± 0.006
298.15 K, 101.33 kPa	1.36146 ± 0.006

Details	vapor or sublimation pressure [kPa]
[2], 327.9 K	93.9 ± 1

COc1ccccc1 [anisole] + CC(=O)OC(C)C
Details	refractive index
[3], x2 = 0	1.5167 ± 0.006

Source: the NIST ThermoML archive (doi:10.1021/acs.jced.8b00063)
